According to ChEMBL document CHEMBL4321837, “Discovery of Potent and Orally Effective Dual Janus Kinase 2/FLT3 Inhibitors for the Treatment of Acute Myelogenous Leukemia and Myeloproliferative Neoplasms” (J Med Chem, 2019):

Legend:
[1] = test system: MV4-11; experiment: Antiproliferative activity against FLT3-ITD-positive human MV4-11 cells assessed as reduction in cell growth after 72 hrs by MTT assay; format: functional, cell-based; details: MV4-11, 72 h
[2] = molecular target: Receptor-type tyrosine-protein kinase FLT3 (Homo sapiens) (UniProt P36888); experiment: Inhibition of human FLT3 (564 to end residues) assessed as residual activity at 100 nM using EAIYAAPFAKKK as substrate after 40 mins in presence of [gamma33P]-ATP by scintillation counting based radiometric assay relative to control
Receptor-type tyrosine-protein kinase FLT3 (Homo sapiens), sequence (P36888 whole entry): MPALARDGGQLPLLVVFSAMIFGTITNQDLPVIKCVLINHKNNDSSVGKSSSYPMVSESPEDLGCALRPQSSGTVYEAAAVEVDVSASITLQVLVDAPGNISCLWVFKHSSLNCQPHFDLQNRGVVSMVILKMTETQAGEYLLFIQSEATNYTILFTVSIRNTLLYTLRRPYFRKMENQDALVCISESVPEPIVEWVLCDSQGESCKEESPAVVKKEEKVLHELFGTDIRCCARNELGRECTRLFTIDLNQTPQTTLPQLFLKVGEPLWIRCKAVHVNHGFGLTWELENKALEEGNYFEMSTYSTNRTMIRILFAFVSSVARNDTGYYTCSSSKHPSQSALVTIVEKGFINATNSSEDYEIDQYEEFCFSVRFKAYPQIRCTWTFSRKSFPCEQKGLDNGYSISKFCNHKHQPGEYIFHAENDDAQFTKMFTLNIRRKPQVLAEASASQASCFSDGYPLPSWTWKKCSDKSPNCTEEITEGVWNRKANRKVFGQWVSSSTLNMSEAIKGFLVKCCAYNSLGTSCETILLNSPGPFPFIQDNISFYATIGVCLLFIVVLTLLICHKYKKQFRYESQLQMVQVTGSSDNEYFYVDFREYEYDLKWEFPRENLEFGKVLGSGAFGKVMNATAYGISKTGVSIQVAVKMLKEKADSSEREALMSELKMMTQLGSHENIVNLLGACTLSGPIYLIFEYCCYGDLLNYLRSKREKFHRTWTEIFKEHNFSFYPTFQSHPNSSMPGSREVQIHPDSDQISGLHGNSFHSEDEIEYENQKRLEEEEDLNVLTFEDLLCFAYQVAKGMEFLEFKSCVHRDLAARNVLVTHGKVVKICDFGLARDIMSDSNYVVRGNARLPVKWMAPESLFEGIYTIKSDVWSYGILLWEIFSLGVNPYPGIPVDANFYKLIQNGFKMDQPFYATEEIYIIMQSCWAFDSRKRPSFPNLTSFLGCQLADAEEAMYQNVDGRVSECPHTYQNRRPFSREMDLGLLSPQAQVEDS

[3] = molecular target: Tyrosine-protein kinase JAK2 (Homo sapiens, UniProt O60674); experiment: Inhibition of human JAK2 (808 to end residues) assessed as residual activity at 100 nM using KTFCGTPEYLAP as substrate after 40 mins in presence of [gamma33P]-ATP by scintillation counting based radiometric assay relative to control
Tyrosine-protein kinase JAK2, sequence (O60674 whole entry): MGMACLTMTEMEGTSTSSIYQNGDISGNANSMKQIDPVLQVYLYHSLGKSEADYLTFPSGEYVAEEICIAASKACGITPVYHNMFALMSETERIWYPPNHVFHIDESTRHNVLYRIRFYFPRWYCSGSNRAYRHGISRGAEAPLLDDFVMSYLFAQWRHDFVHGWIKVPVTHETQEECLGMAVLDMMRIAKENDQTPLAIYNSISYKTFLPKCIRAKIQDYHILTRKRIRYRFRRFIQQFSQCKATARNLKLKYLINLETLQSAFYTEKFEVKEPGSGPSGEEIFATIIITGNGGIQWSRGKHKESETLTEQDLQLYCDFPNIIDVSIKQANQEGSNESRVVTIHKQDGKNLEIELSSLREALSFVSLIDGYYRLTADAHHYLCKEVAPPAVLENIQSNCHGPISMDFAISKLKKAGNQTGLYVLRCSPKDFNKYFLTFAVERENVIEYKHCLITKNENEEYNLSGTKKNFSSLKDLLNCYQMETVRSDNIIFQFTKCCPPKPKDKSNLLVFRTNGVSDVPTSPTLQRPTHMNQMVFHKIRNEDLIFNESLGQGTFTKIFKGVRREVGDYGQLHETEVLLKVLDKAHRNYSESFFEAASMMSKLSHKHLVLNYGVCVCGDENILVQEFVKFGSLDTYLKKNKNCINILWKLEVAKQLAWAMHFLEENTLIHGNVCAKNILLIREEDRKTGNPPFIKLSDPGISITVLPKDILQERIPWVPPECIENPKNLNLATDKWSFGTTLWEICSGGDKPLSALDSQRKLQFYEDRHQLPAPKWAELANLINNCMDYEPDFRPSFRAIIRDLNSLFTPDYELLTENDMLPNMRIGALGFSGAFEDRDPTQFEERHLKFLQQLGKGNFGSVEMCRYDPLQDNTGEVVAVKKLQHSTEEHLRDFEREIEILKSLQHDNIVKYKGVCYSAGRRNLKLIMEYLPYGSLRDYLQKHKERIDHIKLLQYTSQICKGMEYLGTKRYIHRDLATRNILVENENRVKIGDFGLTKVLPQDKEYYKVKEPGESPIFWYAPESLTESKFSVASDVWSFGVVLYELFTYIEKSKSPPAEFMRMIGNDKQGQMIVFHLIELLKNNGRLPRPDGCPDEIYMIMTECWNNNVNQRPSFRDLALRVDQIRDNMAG

[4] = molecular target: T1, Tyrosine-protein kinase JAK3 (Homo sapiens) (UniProt P52333); experiment: Inhibition of human JAK3 (781 to end residues) assessed as residual activity at 100 nM using GGEEEEYFELVKK as substrate after 40 mins in presence of [gamma33P]-ATP by scintillation counting based radiometric assay relative to control
T1 sequence (whole entry): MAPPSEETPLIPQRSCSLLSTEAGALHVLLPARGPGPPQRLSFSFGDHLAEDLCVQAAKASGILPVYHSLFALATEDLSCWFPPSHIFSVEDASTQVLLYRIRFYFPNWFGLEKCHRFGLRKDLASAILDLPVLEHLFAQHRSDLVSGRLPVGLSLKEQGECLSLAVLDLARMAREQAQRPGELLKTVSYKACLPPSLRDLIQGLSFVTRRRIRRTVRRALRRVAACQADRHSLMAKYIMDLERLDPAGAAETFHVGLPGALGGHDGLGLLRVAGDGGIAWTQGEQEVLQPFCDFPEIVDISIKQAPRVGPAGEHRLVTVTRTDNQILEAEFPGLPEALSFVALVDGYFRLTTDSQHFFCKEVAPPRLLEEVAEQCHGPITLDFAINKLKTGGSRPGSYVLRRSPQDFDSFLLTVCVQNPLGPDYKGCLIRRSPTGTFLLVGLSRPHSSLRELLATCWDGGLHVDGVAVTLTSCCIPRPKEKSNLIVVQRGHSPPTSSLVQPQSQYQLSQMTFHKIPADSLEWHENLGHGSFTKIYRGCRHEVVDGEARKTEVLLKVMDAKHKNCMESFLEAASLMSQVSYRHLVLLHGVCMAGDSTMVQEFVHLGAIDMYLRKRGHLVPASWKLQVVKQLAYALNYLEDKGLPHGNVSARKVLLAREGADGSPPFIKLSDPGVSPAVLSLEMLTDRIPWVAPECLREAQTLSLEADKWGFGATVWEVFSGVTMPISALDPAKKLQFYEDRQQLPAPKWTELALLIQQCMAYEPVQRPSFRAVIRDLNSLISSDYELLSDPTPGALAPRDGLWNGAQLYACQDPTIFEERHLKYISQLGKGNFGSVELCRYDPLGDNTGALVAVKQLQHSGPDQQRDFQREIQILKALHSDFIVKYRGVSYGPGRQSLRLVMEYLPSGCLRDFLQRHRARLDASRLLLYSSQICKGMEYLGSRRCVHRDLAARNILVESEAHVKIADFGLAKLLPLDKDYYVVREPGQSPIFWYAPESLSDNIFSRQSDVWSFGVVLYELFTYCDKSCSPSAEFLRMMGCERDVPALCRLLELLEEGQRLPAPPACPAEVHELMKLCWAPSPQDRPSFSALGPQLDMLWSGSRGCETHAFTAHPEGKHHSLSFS

[5] = test system: MOLM-13; experiment: Antiproliferative activity against FLT3-ITD-positive human MOLM13 cells assessed as reduction in cell growth after 72 hrs by MTT assay; format: functional, cell-based; details: MOLM-13, 72 h
[6] = molecular target: Tyrosine-protein kinase JAK1 (Homo sapiens, UniProt P23458); experiment: Inhibition of human JAK1 (866 to end residues) assessed as residual activity at 100 nM using GEEPLYWSFPAKK as substrate after 40 mins in presence of [gamma33P]-ATP by scintillation counting based radiometric assay relative to control
Tyrosine-protein kinase JAK1, sequence (P23458 whole entry): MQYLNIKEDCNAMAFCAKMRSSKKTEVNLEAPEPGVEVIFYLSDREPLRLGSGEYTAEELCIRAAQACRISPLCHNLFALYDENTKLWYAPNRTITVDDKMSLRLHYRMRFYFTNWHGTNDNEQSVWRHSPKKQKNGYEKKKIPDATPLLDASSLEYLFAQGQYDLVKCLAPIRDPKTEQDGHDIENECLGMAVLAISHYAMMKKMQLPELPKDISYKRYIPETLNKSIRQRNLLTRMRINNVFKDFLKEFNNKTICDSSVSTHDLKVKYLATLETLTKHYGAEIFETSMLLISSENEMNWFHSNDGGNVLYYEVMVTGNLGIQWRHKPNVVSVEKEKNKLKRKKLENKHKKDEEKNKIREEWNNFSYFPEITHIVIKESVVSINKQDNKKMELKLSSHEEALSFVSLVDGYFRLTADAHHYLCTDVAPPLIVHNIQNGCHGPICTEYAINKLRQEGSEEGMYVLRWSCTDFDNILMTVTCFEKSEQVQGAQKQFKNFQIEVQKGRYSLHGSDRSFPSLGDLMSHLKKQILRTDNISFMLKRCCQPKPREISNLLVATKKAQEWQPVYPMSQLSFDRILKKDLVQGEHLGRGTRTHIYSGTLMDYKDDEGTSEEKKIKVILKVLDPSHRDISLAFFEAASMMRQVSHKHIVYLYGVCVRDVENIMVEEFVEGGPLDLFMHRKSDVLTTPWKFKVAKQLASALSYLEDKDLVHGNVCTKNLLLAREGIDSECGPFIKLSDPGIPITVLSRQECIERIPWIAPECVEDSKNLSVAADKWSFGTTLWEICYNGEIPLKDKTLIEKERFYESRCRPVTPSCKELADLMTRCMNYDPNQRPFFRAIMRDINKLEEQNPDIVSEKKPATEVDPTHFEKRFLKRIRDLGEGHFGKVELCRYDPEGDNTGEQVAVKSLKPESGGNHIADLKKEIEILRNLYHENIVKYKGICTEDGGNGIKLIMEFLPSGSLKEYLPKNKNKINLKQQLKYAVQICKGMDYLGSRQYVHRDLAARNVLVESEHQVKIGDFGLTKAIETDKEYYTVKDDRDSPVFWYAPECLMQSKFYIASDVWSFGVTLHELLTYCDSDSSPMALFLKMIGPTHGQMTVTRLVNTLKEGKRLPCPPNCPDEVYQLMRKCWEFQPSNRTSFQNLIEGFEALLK

SMILES	IC50 [1] [nM]	Activity [2] [%]	Activity [3] [%]	Activity [4] [%]	IC50 [5] [nM]	Activity [6] [%]
CCN(CCN1CCOCC1)C1CCN(c2ccc(Nc3ncc(C)c(-c4cnn(C(C)C)c4)n3)cc2F)CC1	43	7	11	33	150	23
Cc1cnc(Nc2ccc(N3CCC(N(C)CC4CC4)CC3)c(F)c2)nc1-c1cnn(C(C)C)c1	8.1	4	15	31	31	20
CCN1CCN(c2ccc(Nc3ncc(F)c(-c4cnn(C(C)C)c4)n3)c(F)c2)CC1	57	16	39	77	850	113
Cc1cnc(Nc2ccc(N3CCC(N(C)CCN4CCOCC4)CC3)c(F)c2)nc1-c1cnn(C(C)C)c1	18	5	23	37	89	20
CCOCCN(C)C1CCN(c2ccc(Nc3ncc(C)c(-c4cnn(C(C)C)c4)n3)cc2F)CC1	7.3	5	9	28	28	19
CCCn1cc(-c2nc(Nc3ccc(N4CCN(CC)CC4)c(F)c3)ncc2F)cn1	61	15	27	52	410	59
CCCN(CCN1CCOCC1)C1CCN(c2ccc(Nc3ncc(C)c(-c4cnn(C(C)C)c4)n3)cc2F)CC1	210	8	8	9	210	20
CCN1CCN(c2ccc(Nc3ncc(F)c(-c4cnn(C5CCCC5)c4)n3)cc2F)CC1	27	12	27	68	410	57
CCCCN1CCC(n2cc(-c3nc(Nc4ccc(N5CCN(C)CC5)c(F)c4)ncc3F)cn2)CC1	240	13	19	32	180	68
CC(C)n1cc(-c2nc(Nc3ccc(N4CCC(N5CCCCC5)CC4)c(F)c3)ncc2F)cn1	26	10	8	47	100	36
CC(C)n1cc(-c2nc(Nc3ccc(N4CCC(N(C)C)CC4)c(F)c3)ncc2F)cn1	32	9	6	48	540	57
Cc1cnc(Nc2ccc(N3CCC(N(C)CCN4CCCCC4)CC3)c(F)c2)nc1-c1cnn(C(C)C)c1	12	6	4	38	170	21
CCCn1cc(-c2nc(Nc3ccc(N4CCN(C)CC4)c(F)c3)ncc2F)cn1	57	14	19	69	490	48

Next, values leading:

IC50 [1] [nM]	Activity [2] [%]	Activity [3] [%]	Activity [4] [%]	IC50 [5] [nM]	Activity [6] [%]	SMILES
70	6	18	44	210	26	CCCCCCN(C)C1CCN(c2ccc(Nc3ncc(C)c(-c4cnn(C(C)C)c4)n3)cc2F)CC1
7.3	6	3	9	47	24	CCCN(C)C1CCN(c2ccc(Nc3ncc(C)c(-c4cnn(C(C)C)c4)n3)cc2F)CC1
5.4	8	5	23	100	17	Cc1cnc(Nc2ccc(N3CCC(N(C)C)CC3)c(F)c2)nc1-c1cnn(C(C)C)c1
31	17	17	66	250	62	CCN1CCN(c2ccc(Nc3ncc(F)c(-c4cnn(C(C)C)c4)n3)cc2F)CC1
27	11	15	41	540	49	CCCCn1cc(-c2nc(Nc3ccc(N4CCN(C)CC4)c(F)c3)ncc2F)cn1
42	6	3	40	120	35	Cc1cnc(Nc2ccc(N3CCN(C)CC3)c(F)c2)nc1-c1cnn(C(C)C)c1
30	6	10	36	70	23	Cc1cnc(Nc2ccc(N3CCC(N(C)CC4CCCO4)CC3)c(F)c2)nc1-c1cnn(C(C)C)c1 (stereo unspecified)
36	10	10	44	590	54	CC(C)n1cc(-c2nc(Nc3ccc(N4CCN(C5CCN(C)CC5)CC4)c(F)c3)ncc2F)cn1
